# Legend:
# animal model of anxiety = details: in vivo
# mGluR3 [1] = target: T1, mGluR3 (Homo sapiens, UniProt Q14832); assay: [3H] LY341495 binding at mGluR3; design: expressed in transfected cells; details: Example 1: average result from several tests, read-out: Ki, reversal of [3H] LY341495 binding at mGluR3
# Excerpt: (D. D. Schoepp, et al., Neuropharmacol., 1996, 35, 1661-1672 and 1997, 36, 1-11).
# mGluR3 [2] = target: T1, mGluR3; assay: decrease of forskolin-stimulated cAMP in cells expressing mGluR3
# Excerpt: The ability of compounds to function as agonists of glutamate at metabotropic glutamate receptors may be determined by measuring their ability to decrease forskolin-stimulated cAMP in cells expressing mGluR receptors.
# T1 sequence (Q14832 23-879): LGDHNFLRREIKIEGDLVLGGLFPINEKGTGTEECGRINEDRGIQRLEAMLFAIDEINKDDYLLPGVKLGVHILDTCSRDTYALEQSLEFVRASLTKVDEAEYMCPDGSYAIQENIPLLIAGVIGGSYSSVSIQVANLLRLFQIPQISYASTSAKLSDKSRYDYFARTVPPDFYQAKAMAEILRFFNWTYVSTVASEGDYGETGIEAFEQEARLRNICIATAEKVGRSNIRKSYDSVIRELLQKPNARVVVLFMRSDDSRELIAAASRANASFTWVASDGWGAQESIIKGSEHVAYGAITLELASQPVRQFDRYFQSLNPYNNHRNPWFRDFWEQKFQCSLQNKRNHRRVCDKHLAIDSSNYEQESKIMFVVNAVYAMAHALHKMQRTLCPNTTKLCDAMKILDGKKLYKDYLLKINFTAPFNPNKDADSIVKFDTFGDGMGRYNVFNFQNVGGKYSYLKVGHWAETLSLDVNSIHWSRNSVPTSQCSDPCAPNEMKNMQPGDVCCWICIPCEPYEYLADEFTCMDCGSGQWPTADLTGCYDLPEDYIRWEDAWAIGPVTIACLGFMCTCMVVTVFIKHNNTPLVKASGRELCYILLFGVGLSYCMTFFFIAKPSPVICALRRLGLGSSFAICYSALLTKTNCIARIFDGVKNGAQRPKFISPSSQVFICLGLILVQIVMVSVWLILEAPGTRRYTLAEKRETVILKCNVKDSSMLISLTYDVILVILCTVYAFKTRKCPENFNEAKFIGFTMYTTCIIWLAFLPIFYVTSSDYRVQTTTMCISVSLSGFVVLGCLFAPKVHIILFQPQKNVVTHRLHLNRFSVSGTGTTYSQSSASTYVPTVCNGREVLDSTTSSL
melting point,Compound,potency in an animal model of anxiety (animal model of anxiety),Ki (mGluR3 [1]),EC50 (mGluR3 [2])
–,"N[C@H](C(=O)O)[C@H]1[C@@H](CO)[C@@H]1C(=O)O (racemic) [Example 1, (2SR,1′SR,2′RS,3′RS)-2-(3′-hydroxymethyl-2′-carboxycyclopropyl)glycine]",highly potent,7.9 nM,11.5 nM
200 to 202 °C,"N[C@H](C(=O)O)[C@H]1[C@@H](CS)[C@@H]1C(=O)O (racemic) [Example 3, (2SR,1′RS,2′RS,3′RS)-2-[3′-mercaptomethyl-2′-carboxycyclopropyl]glycine]",–,–,–
201 °C,"N[C@H](C(=O)O)[C@H]1[C@@H](CSc2ccccc2)[C@@H]1C(=O)O (racemic) [Example 8, (2SR,1′RS,2′RS,3′RS)-2-[3′-(phenylthiomethyl)-2′-carboxycyclopropyl]glycine]",–,–,–
–,"N[C@H](C(=O)O)[C@H]1[C@@H](CO)[C@@H]1C(=O)O (single isomer, unassigned) [Example 22]",–,5.1 nM,–

# Source: patent US6498180B1, “Excitatory amino acid receptor modulators” (Eli Lilly and Company, priority 1999, dated 2002)
